Measurements as given in patent US11192900B2, “Substituted 1,6-dihydropyridinones and 1,2-dihydroisoquinolinones as bet inhibitors” (NUVATION BIO INC., priority 2018, dated 2021).

Molecular target: BRD4-2 (Homo sapiens (Human), UniProt O60885)
Experiment: Bromodomain and Extraterminal Domain (BET) Binding Assay
Details: Table 3; read-out: BRD4-2 IC50
Protocol: The bromodomain binding assays were performed by Reaction Biology Corp., Malvern, Pa., USA (www.reactionbiology.com). The BET binding assays were conducted in 384 well microplates in assay buffer (50 mM HEPES-HCl, pH 7.5, 100 mM NaCl, 1 mg/ml BSA, 0.05% CHAPS, and 0.5% DMSO) with compounds added as DMSO stocks at a single concentration or with 10-point dose response titrations. BET protein or assay buffer were delivered to the appropriate wells of the microplate. Test compound was then delivered by acoustic technology via a Labcyte Echo550 liquid handler. The microplate was centrifuged for 5 min and pre-incubated for 30 min at RT with gentle shaking. The ligand (histone H4 peptide (1-21) K5/8/12/16Ac-biotin) was delivered and the microplate was again centrifuged for 5 min and allowed to incubate for 30 min at RT with gentle shaking. Donor beads were then added in the absence of light and the microplate was centrifuged and gently shaken. After 5 min, acceptor beads were added in the absence of light and the microplate was centrifuged and gently shakenin the dark for 60 min. The microplate was read using a Perkin Elmer EnSpire Alpha plate reader (λEx/λEm=680/520-620 nm). Percent inhibition was calculated relative to positive and negative controls on a per plate basis. For titration experiments, IC50 values were determined by fitting the percent inhibition versus compound concentration.

Row | IC50 [nM] | Structure (SMILES)
1 | 120 | C=CC(=O)Nc1ccc(Oc2ccc(C)cc2)c(-c2cc(NC)c(=O)n(C)c2)c1 [Compound 6, N-(3-(1-methyl-5-(methylamino)-6-oxo-1,6-dihydropyridin-3-yl)-4-(p-tolyloxy)phenyl)acrylamide]
2 | 22 | C=CS(=O)(=O)Nc1ccc(Oc2ccc(C)cc2)c(-c2cc(NC)c(=O)n(C)c2)c1 [Compound 4, N-(3-(1-methyl-5-(methylamino)-6-oxo-1,6-dihydropyridin-3-yl)-4-(p-tolyloxy)phenyl)ethenesulfonamide]
3 | 261 | CC#CC(=O)Nc1ccc(Oc2ccc(F)cc2F)c(-c2cn(C)c(=O)c3ccccc23)c1 [Compound 393, N-(4-(2,4-difluorophenoxy)-3-(2-methyl-1-oxo-1,2-dihydroisoquinolin-4-yl)phenyl)but-2-ynamide]
4 | 142 | C=CC(=O)Nc1ccc(Oc2ccc(OC)cc2)c(-c2cc(NC)c(=O)n(C)c2)c1 [Compound 5, N-(4-(4-methoxyphenoxy)-3-(1-methyl-5-(methylamino)-6-oxo-1,6-dihydropyridin-3-yl)phenyl)acrylamide]
5 | 17900 | C=CC(=O)Nc1ccc(Oc2ccc(F)cc2)c(-c2cn(C(C)C)c(=O)c3ccccc23)c1 [Compound 28, N-(4-(4-fluorophenoxy)-3-(2-isopropyl-1-oxo-1,2-dihydroisoquinolin-4-yl)phenyl)acrylamide]
6 | 14 | C=CS(=O)(=O)Nc1ccc(Oc2ccc(F)cc2)c(-c2cn(C)c(=O)c3ccccc23)c1 [Compound 11, N-(4-(4-fluorophenoxy)-3-(2-methyl-1-oxo-1,2-dihydroisoquinolin-4-yl)phenyl)ethenesulfonamide]
7 | 717 | C=CC(=O)Nc1ccc(Oc2ccc(Cl)c(F)c2)c(-c2cn(C)c(=O)c3ccccc23)c1 [Compound 32, N-(4-(4-chloro-3-fluorophenoxy)-3-(2-methyl-1-oxo-1,2-dihydroisoquinolin-4-yl)phenyl)acrylamide]
8 | 24 | C=CS(=O)(=O)Nc1ccc(Oc2ccc(C)cc2)c(-c2cn(C)c(=O)c3ccccc23)c1 [Compound 13, N-(3-(2-methyl-1-oxo-1,2-dihydroisoquinolin-4-yl)-4-(p-tolyloxy)phenyl)ethenesulfonamide]
9 | 298 | C=CC(=O)N(C)c1ccc(Oc2ccc(F)cc2F)c(-c2cn(C)c(=O)c3ccccc23)c1 [Compound 396, N-(4-(2,4-difluorophenoxy)-3-(2-methyl-1-oxo-1,2-dihydroisoquinolin-4-yl)phenyl)-N-methylacrylamide]
10 | 281 | C=CC(=O)Nc1ccc(Oc2ccc(F)cc2)c(-c2cn(C)c(=O)c3ccccc23)c1 [Compound 26, N-(4-(4-fluorophenoxy)-3-(2-methyl-1-oxo-1,2-dihydroisoquinolin-4-yl)phenyl)acrylamide]
11 | 239 | C#CC(=O)Nc1ccc(Oc2ccc(F)cc2F)c(-c2cn(C)c(=O)c3ccccc23)c1 [Compound 74, N-(4-(2,4-difluorophenoxy)-3-(2-methyl-1-oxo-1,2-dihydroisoquinolin-4-yl)phenyl)propiolamide]
12 | 1800 | C=CC(=O)Nc1ccc(Nc2c(F)cccc2F)c(-c2cn(C)c(=O)c3ccccc23)c1 [Compound 319, N-(4-(2,6-difluorophenylamino)-3-(2-methyl-1-oxo-1,2-dihydroisoquinolin-4-yl)phenyl)acrylamide]
13 | 758 | Cc1cccc(C)c1Oc1ccc(NC(=O)/C=C/CN(C)C)cc1-c1cn(C)c(=O)c2ccccc12 [Compound 410, (E)-4-(dimethylamino)-N-(4-(2,6-dimethylphenoxy)-3-(2-methyl-1-oxo-1,2-dihydroisoquinolin-4-yl)phenyl)but-2-enamide]
14 | 319 | C=CC(=O)Nc1ccc(Oc2ccc(F)cc2F)c(-c2cn(C)c(=O)c3ccccc23)c1 [Compound 9, N-(4-(2,4-difluorophenoxy)-3-(2-methyl-1-oxo-1,2-dihydroisoquinolin-4-yl)phenyl)acrylamide]
15 | 264 | C=CC(=O)Nc1ccc(Oc2ccc(C)cc2)c(-c2cn(C)c(=O)c3ccccc23)c1 [Compound 25, N-(3-(2-methyl-1-oxo-1,2-dihydroisoquinolin-4-yl)-4-(p-tolyloxy)phenyl)acrylamide]
16 | 56 | C=CS(=O)(=O)Nc1ccc(Oc2ccc(F)cc2F)c(-c2cn(C)c(=O)c3ccccc23)c1 [Compound 10, N-(4-(2,4-difluorophenoxy)-3-(2-methyl-1-oxo-1,2-dihydroisoquinolin-4-yl)phenyl)ethenesulfonamide]

Further lines, the compound ahead of its results:

Row | Structure (SMILES) | IC50 [nM]
17 | C=CS(=O)(=O)Nc1ccc(Oc2ccc(F)cc2)c(-c2cc(NC)c(=O)n(C)c2)c1 [Compound 7, N-(4-(4-fluorophenoxy)-3-(1-methyl-5-(methylamino)-6-oxo-1,6-dihydropyridin-3-yl)phenyl)ethenesulfonamide] | 24
18 | C=CC(=O)Nc1ccc(N(C)c2ccc(F)cc2F)c(-c2cn(C)c(=O)c3sc(C(=O)NCC)cc23)c1 [Compound 612, 4-(5-acrylamido-2-((2,4-difluorophenyl)(methyl)amino)phenyl)-N-ethyl-6-methyl-7-oxo-6,7-dihydrothieno[2,3-c]pyridine-2-carboxamide] | > 10000
19 | C=CC(=O)Nc1cccc(Oc2ccc(F)cc2)c1-c1cc(NC)c(=O)n(C)c1 [Compound 23, N-(3-(4-fluorophenoxy)-2-(1-methyl-5-(methylamino)-6-oxo-1,6-dihydropyridin-3-yl)phenyl)acrylamide] | > 10000
20 | C=CS(=O)(=O)Nc1ccc(Nc2ccc(F)cc2F)c(-c2cc(NC)c(=O)n(C)c2)c1 [Compound 21, N-(4-(2,4-difluorophenylamino)-3-(1-methyl-5-(methylamino)-6-oxo-1,6-dihydropyridin-3-yl)phenyl)ethenesulfonamide] | 11
21 | C=CS(=O)(=O)Nc1ccc(Oc2ccc(F)cc2F)c(-c2cnc(=O)n(C)c2)c1 [Compound 19, N-(4-(2,4-difluorophenoxy)-3-(1-methyl-2-oxo-1,2-dihydropyrimidin-5-yl)phenyl)ethenesulfonamide] | 1450
22 | C=CC(=O)Nc1ccc(Oc2ccc(Cl)cc2)c(-c2cn(C)c(=O)c3ccccc23)c1 [Compound 31, N-(4-(4-chlorophenoxy)-3-(2-methyl-1-oxo-1,2-dihydroisoquinolin-4-yl)phenyl)acrylamide] | 413
23 | C=CS(=O)(=O)Nc1ccc(OC)c(-c2cc(NC)c(=O)n(C)c2)c1 [Compound 20, N-(4-methoxy-3-(1-methyl-5-(methylamino)-6-oxo-1,6-dihydropyridin-3-yl)phenyl)ethenesulfonamide] | 3860
24 | C=CS(=O)(=O)Nc1ccc(Oc2ccc(F)cc2F)c(-c2cn(C)c(=O)c3c2CCNC3)c1 [Compound 14, N-(4-(2,4-difluorophenoxy)-3-(2-methyl-1-oxo-1,2,5,6,7,8-hexahydro-2,7-naphthyridin-4-yl)phenyl)ethenesulfonamide] | > 10000
25 | C=CS(=O)(=O)N(C)c1ccc(Oc2ccc(F)cc2F)c(-c2cc(NC)c(=O)n(C)c2)c1 [Compound 15, N-(4-(2,4-difluorophenoxy)-3-(1-methyl-5-(methylamino)-6-oxo-1,6-dihydropyridin-3-yl)phenyl)-N-methylethenesulfonamide] | 34
26 | C=CS(=O)(=O)Nc1ccc(Oc2ccc(F)cc2F)c(-c2c[nH]c(=O)c3ccccc23)c1 [Compound 18, N-(4-(2,4-difluorophenoxy)-3-(1-oxo-1,2-dihydroisoquinolin-4-yl)phenyl)ethenesulfonamide] | > 10000
27 | C=CS(=O)(=O)Nc1ccc(Oc2ccc(F)cc2F)c(-c2c[nH]c(=O)c(NC)c2)c1 [Compound 22, N-(4-(2,4-difluorophenoxy)-3-(5-(methylamino)-6-oxo-1,6-dihydropyridin-3-yl)phenyl)ethenesulfonamide] | 3850
28 | C=CC(=O)Nc1ccc(Oc2ccc(F)cc2F)c(-c2nn(C)c(=O)cc2OC)c1 [Compound 403, N-(4-(2,4-difluorophenoxy)-3-(4-methoxy-1-methyl-6-oxo-1,6-dihydropyridazin-3-yl)phenyl)acrylamide] | 206
29 | C=CS(=O)(=O)Nc1ccc(Oc2ccc(OC)cc2)c(-c2cc(NC)c(=O)n(C)c2)c1 [Compound 8, N-(4-(4-methoxyphenoxy)-3-(1-methyl-5-(methylamino)-6-oxo-1,6-dihydropyridin-3-yl)phenyl)ethenesulfonamide] | 17
30 | C=CC(=O)Nc1ccc(Nc2ccc(F)cc2F)c(-c2cc(NC)c(=O)n(C)c2)c1 [Compound 288, N-(4-(2,4-difluorophenylamino)-3-(1-methyl-5-(methylamino)-6-oxo-1,6-dihydropyridin-3-yl)phenyl)acrylamide] | 889
31 | C=CC(=O)Nc1ccc(Nc2ccc(C)cc2)c(-c2cn(C)c(=O)c3ccccc23)c1 [Compound 309, N-(3-(2-methyl-1-oxo-1,2-dihydroisoquinolin-4-yl)-4-(p-tolylamino)phenyl) acrylamide] | 2120
32 | C=CC(=O)Nc1ccc(OC(C)C)c(-c2cc(NC)c(=O)n(C)c2)c1 [Compound 24, N-(4-isopropoxy-3-(1-methyl-5-(methylamino)-6-oxo-1,6-dihydropyridin-3-yl)phenyl)acrylamide] | 779
33 | C=CC(=O)Nc1ccc(Oc2ccc(F)cc2F)c(-c2cn(C)c(=O)c3c2OCC(=O)N3)c1 [Compound 404, N-(4-(2,4-difluorophenoxy)-3-(6-methyl-3,5-dioxo-3,4,5,6-tetrahydro-2H-pyrido[4,3-b][1,4]oxazin-8-yl)phenyl)acrylamide] | 1830
